Data: PubChem BioAssay AID2060624 (Molecular Pharmacology Branch, DTP, NCI, 2025)

System: 217524-143-R1-J4-PDC spheroids with HUVEC/MSC, viability
Assay: Anticancer human tumor 217524-143-R1-J4-PDC patient-derived pancreatic carcinoma cell line growth inhibition [CLK]
Details: for IC50: curve of first compound; for viability, T/C: stronger effect = lower value
Method in brief: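 Patient-derived tumor cells grown as complex spheroids with HUVEC endothelial cells and mesenchymal stem cells, treated with drug combinations. Concentrations descend in half-log steps from near clinical Cmax, or from 10 microM if Cmax unknown.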

[1] = second compound 0.0316 µM, first compound 0.0316 µM
[2] = second compound 0.0316 µM, first compound 0.1 µM
[3] = second compound 0.0316 µM, first compound 0.316 µM
[4] = second compound 0.0316 µM, first compound 1 µM
[5] = second compound 0.1 µM, first compound 0.0316 µM
[6] = second compound 0.1 µM, first compound 0.1 µM
[7] = second compound 0.1 µM, first compound 0.316 µM
[8] = second compound 0.1 µM, first compound 1 µM
[9] = second compound 0.316 µM, first compound 0.0316 µM
[10] = second compound 0.316 µM, first compound 0.1 µM
[11] = second compound 0.316 µM, first compound 0.316 µM
[12] = second compound 0.316 µM, first compound 1 µM
[13] = second compound 1 µM, first compound 0.0316 µM
[14] = second compound 1 µM, first compound 0.1 µM
[15] = second compound 1 µM, first compound 0.316 µM
[16] = second compound 1 µM, first compound 1 µM
[17] = second compound 3.16 µM, first compound 0.0316 µM
[18] = second compound 3.16 µM, first compound 0.1 µM
[19] = second compound 3.16 µM, first compound 0.316 µM
[20] = second compound 3.16 µM, first compound 1 µM
[21] = second compound 10 µM, first compound 0.0316 µM
[22] = second compound 10 µM, first compound 0.1 µM
[23] = second compound 10 µM, first compound 0.316 µM
[24] = second compound 10 µM, first compound 1 µM
[25] = second compound 0.0316 µM, first compound 0.00316 µM
[26] = second compound 0.0316 µM, first compound 0.01 µM
[27] = second compound 0.1 µM, first compound 0.00316 µM
[28] = second compound 0.1 µM, first compound 0.01 µM
[29] = second compound 0.316 µM, first compound 0.00316 µM
[30] = second compound 0.316 µM, first compound 0.01 µM
[31] = second compound 1 µM, first compound 0.00316 µM
[32] = second compound 1 µM, first compound 0.01 µM
[33] = second compound 3.16 µM, first compound 0.00316 µM
[34] = second compound 3.16 µM, first compound 0.01 µM
[35] = second compound 10 µM, first compound 0.00316 µM
[36] = second compound 10 µM, first compound 0.01 µM
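Also: spheroids exposed to agents for seven days before reading.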
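For viability, T/C in this document: 100% = DMSO vehicle control viability.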

With `C=CC(=O)Nc1cc(Nc2nccc(-c3cn(C)c4ccccc34)n2)c(OC)cc1N(C)CCN(C)C` + CNC(=O)c1ccc(Nc2nc(OC3CCCC3)c3c(-c4ccc5nc(C)oc5c4)c[nH]c3n2)c(OC)c1 the IC50 (second compound 0.0316 µM) was 61.3 nM, the IC50 (second compound 0.1 µM) was < 0.949 nM and the IC50 (second compound 0.316 µM) was < 0.949 nM. The IC50 (second compound 1 µM) was < 0.949 nM, the IC50 (second compound 3.16 µM) was < 0.949 nM and the IC50 (second compound 10 µM) was < 0.949 nM. It also gave a viability, T/C (second compound 0.0316 µM, first compound 0.000949 µM) of 92%, a viability, T/C (second compound 0.0316 µM, first compound 0.003 µM) of 83.9% and a viability, T/C (second compound 0.0316 µM, first compound 0.00949 µM) of 66.6%. For the same molecule, the viability, T/C (second compound 0.0316 µM, first compound 0.03 µM) was 64.7%, the viability, T/C (second compound 0.0316 µM, first compound 0.0949 µM) was 41.2% and the viability, T/C (second compound 0.0316 µM, first compound 0.3 µM) was 31.4%. For the same molecule, the viability, T/C (second compound 0.1 µM, first compound 0.000949 µM) was 47.9%, the viability, T/C (second compound 0.1 µM, first compound 0.003 µM) was 38.6% and the viability, T/C (second compound 0.1 µM, first compound 0.00949 µM) was 41.9%. For the same molecule, the viability, T/C (second compound 0.1 µM, first compound 0.03 µM) was 31.2%, the viability, T/C (second compound 0.1 µM, first compound 0.0949 µM) was 22% and the viability, T/C (second compound 0.1 µM, first compound 0.3 µM) was 17.1%. The viability, T/C (second compound 0.316 µM, first compound 0.000949 µM) was 39.3%, the viability, T/C (second compound 0.316 µM, first compound 0.003 µM) was 39.4% and the viability, T/C (second compound 0.316 µM, first compound 0.00949 µM) was 34%. It also gave a viability, T/C (second compound 0.316 µM, first compound 0.03 µM) of 28.7%, a viability, T/C (second compound 0.316 µM, first compound 0.0949 µM) of 16% and a viability, T/C (second compound 0.316 µM, first compound 0.3 µM) of 16%. The viability, T/C (second compound 1 µM, first compound 0.000949 µM) was 31.5%, the viability, T/C (second compound 1 µM, first compound 0.003 µM) was 28.3% and the viability, T/C (second compound 1 µM, first compound 0.00949 µM) was 25.9%. The viability, T/C (second compound 1 µM, first compound 0.03 µM) was 18%, the viability, T/C (second compound 1 µM, first compound 0.0949 µM) was 13.3% and the viability, T/C (second compound 1 µM, first compound 0.3 µM) was 9.6%. For the same molecule, the viability, T/C (second compound 3.16 µM, first compound 0.000949 µM) was 31.4%, the viability, T/C (second compound 3.16 µM, first compound 0.003 µM) was 28.3% and the viability, T/C (second compound 3.16 µM, first compound 0.00949 µM) was 24.9%. It also gave a viability, T/C (second compound 3.16 µM, first compound 0.03 µM) of 19.2%, a viability, T/C (second compound 3.16 µM, first compound 0.0949 µM) of 12.5% and a viability, T/C (second compound 3.16 µM, first compound 0.3 µM) of 8.29%. For the same molecule, the viability, T/C (second compound 10 µM, first compound 0.000949 µM) was 26.6%, the viability, T/C (second compound 10 µM, first compound 0.003 µM) was 22.3% and the viability, T/C (second compound 10 µM, first compound 0.00949 µM) was 24.7%. The viability, T/C (second compound 10 µM, first compound 0.03 µM) was 20.1%, the viability, T/C (second compound 10 µM, first compound 0.0949 µM) was 13% and the viability, T/C (second compound 10 µM, first compound 0.3 µM) was 9.91%.
`CC(Nc1ccc2c(c1)OCCn1cc(N3C(=O)OCC3C(F)F)nc1-2)C(N)=O` (stereo not drawn) + CNC(=O)c1ccc(Nc2nc(OC3CCCC3)c3c(-c4ccc5nc(C)oc5c4)c[nH]c3n2)c(OC)c1 was tested, and the IC50 (second compound 0.0316 µM) was 55.8 nM, the IC50 (second compound 0.1 µM) was < 31.6 nM and the IC50 (second compound 0.316 µM) was < 31.6 nM. For the same molecule, the IC50 (second compound 1 µM) was < 31.6 nM, the IC50 (second compound 3.16 µM) was < 31.6 nM and the IC50 (second compound 10 µM) was < 31.6 nM. For the same molecule, the viability, T/C [1] was 63.3%, the viability, T/C [2] was 36.5% and the viability, T/C [3] was 15.6%. The viability, T/C [4] was 8.68%, the viability, T/C (second compound 0.0316 µM, first compound 3.16 µM) was 6.12% and the viability, T/C (second compound 0.0316 µM, first compound 10 µM) was 4.83%. The viability, T/C [5] was 31.9%, the viability, T/C [6] was 20.7% and the viability, T/C [7] was 11.4%. For the same molecule, the viability, T/C [8] was 7.98%, the viability, T/C (second compound 0.1 µM, first compound 3.16 µM) was 5.53% and the viability, T/C (second compound 0.1 µM, first compound 10 µM) was 4.2%. For the same molecule, the viability, T/C [9] was 24.7%, the viability, T/C [10] was 13.8% and the viability, T/C [11] was 7.07%. The viability, T/C [12] was 4.72%, the viability, T/C (second compound 0.316 µM, first compound 3.16 µM) was 3.59% and the viability, T/C (second compound 0.316 µM, first compound 10 µM) was 3.01%. It also gave a viability, T/C [13] of 16.8%, a viability, T/C [14] of 10.2% and a viability, T/C [15] of 5.1%. It also gave a viability, T/C [16] of 3.22%, a viability, T/C (second compound 1 µM, first compound 3.16 µM) of 3.05% and a viability, T/C (second compound 1 µM, first compound 10 µM) of 2.02%. For the same molecule, the viability, T/C [17] was 17.7%, the viability, T/C [18] was 9.35% and the viability, T/C [19] was 4.79%. The viability, T/C [20] was 3.52%, the viability, T/C (second compound 3.16 µM, first compound 3.16 µM) was 2.61% and the viability, T/C (second compound 3.16 µM, first compound 10 µM) was 2.12%. It also gave a viability, T/C [21] of 18.6%, a viability, T/C [22] of 10.6% and a viability, T/C [23] of 6.17%. The viability, T/C [24] was 2.83%, the viability, T/C (second compound 10 µM, first compound 3.16 µM) was 3.46% and the viability, T/C (second compound 10 µM, first compound 10 µM) was 2.14%.
`CCN1CCN(Cc2ccc(Nc3ncc(F)c(-c4cc(F)c5nc(C)n(C(C)C)c5c4)n3)nc2)CC1` + CNC(=O)c1ccc(Nc2nc(OC3CCCC3)c3c(-c4ccc5nc(C)oc5c4)c[nH]c3n2)c(OC)c1 was tested, and the IC50 (second compound 0.0316 µM) was 133 nM, the IC50 (second compound 0.1 µM) was < 3.16 nM and the IC50 (second compound 0.316 µM) was < 3.16 nM. For the same molecule, the IC50 (second compound 1 µM) was < 3.16 nM, the IC50 (second compound 3.16 µM) was < 3.16 nM and the IC50 (second compound 10 µM) was < 3.16 nM. The viability, T/C [25] was 84.8%, the viability, T/C [26] was 71.2% and the viability, T/C [1] was 68.4%. The viability, T/C [2] was 52.4%, the viability, T/C [3] was 40% and the viability, T/C [4] was 38.4%. The viability, T/C [27] was 50.3%, the viability, T/C [28] was 42% and the viability, T/C [5] was 35.6%. It also gave a viability, T/C [6] of 27.8%, a viability, T/C [7] of 37.2% and a viability, T/C [8] of 36%. It also gave a viability, T/C [29] of 46.8%, a viability, T/C [30] of 34.8% and a viability, T/C [9] of 30.8%. The viability, T/C [10] was 25.7%, the viability, T/C [11] was 30.5% and the viability, T/C [12] was 32%. For the same molecule, the viability, T/C [31] was 28.4%, the viability, T/C [32] was 26.2% and the viability, T/C [13] was 28.5%. It also gave a viability, T/C [14] of 25.2%, a viability, T/C [15] of 25.2% and a viability, T/C [16] of 26.3%. It also gave a viability, T/C [33] of 25.3%, a viability, T/C [34] of 24.8% and a viability, T/C [17] of 23.9%. It also gave a viability, T/C [18] of 21.1%, a viability, T/C [19] of 21.6% and a viability, T/C [20] of 22.2%. The viability, T/C [35] was 24.3%, the viability, T/C [36] was 23% and the viability, T/C [21] was 23.8%. It also gave a viability, T/C [22] of 21.9%, a viability, T/C [23] of 21.4% and a viability, T/C [24] of 26.4%.
With `COc1c(OCCCN2CCOCC2)ccc2c3n(c(=NC(=O)c4cnc(N)nc4)nc12)CCN3` + CNC(=O)c1ccc(Nc2nc(OC3CCCC3)c3c(-c4ccc5nc(C)oc5c4)c[nH]c3n2)c(OC)c1 the IC50 (second compound 0.0316 µM) was 6.97 nM, the IC50 (second compound 0.1 µM) was < 3.16 nM and the IC50 (second compound 0.316 µM) was < 3.16 nM. For the same molecule, the IC50 (second compound 1 µM) was < 3.16 nM, the IC50 (second compound 3.16 µM) was < 3.16 nM and the IC50 (second compound 10 µM) was < 3.16 nM. The viability, T/C [25] was 74.9%, the viability, T/C [26] was 38.7% and the viability, T/C [1] was 10.4%. It also gave a viability, T/C [2] of 4.29%, a viability, T/C [3] of 2.9% and a viability, T/C [4] of 2.31%. It also gave a viability, T/C [27] of 36.7%, a viability, T/C [28] of 21.8% and a viability, T/C [5] of 9.86%. The viability, T/C [6] was 3.54%, the viability, T/C [7] was 3.16% and the viability, T/C [8] was 2.09%. The viability, T/C [29] was 22.1%, the viability, T/C [30] was 14.2% and the viability, T/C [9] was 7.78%. For the same molecule, the viability, T/C [10] was 3.17%, the viability, T/C [11] was 2.58% and the viability, T/C [12] was 2.49%. For the same molecule, the viability, T/C [31] was 19.9%, the viability, T/C [32] was 10.9% and the viability, T/C [13] was 4.57%. It also gave a viability, T/C [14] of 3.24%, a viability, T/C [15] of 1.78% and a viability, T/C [16] of 1.77%. The viability, T/C [33] was 21%, the viability, T/C [34] was 11.8% and the viability, T/C [17] was 5.14%. It also gave a viability, T/C [18] of 2.24%, a viability, T/C [19] of 1.69% and a viability, T/C [20] of 1.26%. For the same molecule, the viability, T/C [35] was 16.7%, the viability, T/C [36] was 9.36% and the viability, T/C [21] was 5%. For the same molecule, the viability, T/C [22] was 2.58%, the viability, T/C [23] was 1.86% and the viability, T/C [24] was 1.37%.
